Data as given in ChEMBL document CHEMBL3868604, “Optimization and bioevaluation of Cdc37-derived peptides: An insight into Hsp90-Cdc37 protein-protein interaction modulators” (Bioorg Med Chem, 2017).
Activity calls are given as the source filed them. The rule behind the calls is not given here.

Legend:
[1] = biological target: T1, Heat shock protein HSP90 (Homo sapiens, UniProt P07900+P08238); assay: Inhibition of FITC-geldanamycin binding to N-terminal GST-tagged Hsp90 (unknown origin) expressed in Escherichia coli at 100 uM measured after 15 mins by fluorescence polarization assay relative to control
[2] = biological target: T1, Heat shock protein HSP90; assay: Binding affinity to N-terminal GST-tagged Hsp90 (unknown origin) expressed in Escherichia coli by ITC method
[3] = species on record: Homo sapiens; assay: Inhibition of N-terminal GST-tagged Hsp90 (unknown origin)-His-tagged Cdc37 middle domain (unknown origin) interaction expressed in Escherichia coli at 50 uM preincubated for 30 mins with GST-tagged Hsp90 (unknown origin) followed by addition of His-tagged Cdc37 middle domain (unknown origin) measured after 1 hr by GST-pulldown assay

Ac-KHFGMLRRWD-NH2 gave an inhibition [1] of under 10% and a Kd [2] of 21 µM.
For `CC(C)c1cc(C(=O)N2Cc3ccc(CN4CCN(C)CC4)cc3C2)c(O)cc1O`, the inhibition [1] was 99.8%.
Ac-HFGMLRR-NH2 was tested, and the inhibition [1] was under 10%, the Kd [2] was 5.99 µM and the inhibition [3] was “Active”.
For Ac-KHFGMLRR-NH2, the inhibition [1] was under 10% and the Kd [2] was 7.41 µM.
With Ac-KHFGMLRRWDD-NH2 the inhibition [1] was under 10% and the Kd [2] was 6.9 µM.
Ac-KHFGMLRRW-NH2 showed an inhibition [1] of under 10% and a Kd [2] of 10.07 µM.
